Source: publication PMC9687805 (Biomolecules, 2022)
Values joined by “and” are separate entries in the source; they are usually repeats but may differ in a detail not shown here. Equal entries are not always repeated. Where two headings read alike, the source gives them in different places.

Tests used:
Human erythrocyte AChE = target: T1, Human erythrocyte AChE (Homo sapiens, UniProt P22303); test: biochemical; details: for IC50: human erythrocyte AChE, 5 min incubation, 25 °C, pH 7.5, read-out: Inhibitory activity against AChE, IC50; for inhibition at 20 µM: read-out: Inhibitory activity against AChE, % inhibition at 20 μM
T1 construct: purchased Sigma-Aldrich; host or cells: human erythrocytes
T1 sequence (P22303 32-617 isoform P22303-2 limits assumed): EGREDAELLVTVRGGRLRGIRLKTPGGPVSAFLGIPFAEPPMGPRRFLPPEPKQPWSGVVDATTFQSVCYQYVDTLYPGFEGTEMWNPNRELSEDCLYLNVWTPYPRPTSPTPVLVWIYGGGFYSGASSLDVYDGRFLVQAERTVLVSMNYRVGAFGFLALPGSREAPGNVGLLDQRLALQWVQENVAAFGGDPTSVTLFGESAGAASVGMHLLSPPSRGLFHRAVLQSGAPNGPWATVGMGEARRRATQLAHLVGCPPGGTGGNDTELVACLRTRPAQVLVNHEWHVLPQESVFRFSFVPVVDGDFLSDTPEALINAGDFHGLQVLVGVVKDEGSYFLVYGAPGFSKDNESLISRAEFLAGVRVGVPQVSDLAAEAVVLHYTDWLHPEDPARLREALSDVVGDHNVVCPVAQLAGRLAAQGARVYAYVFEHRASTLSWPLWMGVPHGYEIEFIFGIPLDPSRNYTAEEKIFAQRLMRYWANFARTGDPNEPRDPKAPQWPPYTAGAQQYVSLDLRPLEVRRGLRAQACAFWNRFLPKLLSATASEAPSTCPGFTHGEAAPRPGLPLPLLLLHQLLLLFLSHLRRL
Experimental: (§1) The assay solution consisted of 0.1 M K/Na phosphate buffer pH 7.5, 25 °C, 0.33 mM DTNB, 0.02 unit/mL AChE or BChE, and 1 mM substrate (ATCh or BTCh, respectively). Reagent blanks consisted of reaction mixtures without substrates.
(§2) Each experiment was performed in triplicate.

equine serum BChE = target: T2, equine serum BChE (Equus caballus, UniProt P81908); test: biochemical; details: mean ± SEM, n = 3; for IC50: equine serum BChE, 5 min incubation, 25 °C, pH 7.5, read-out: Inhibitory activity against BChE, IC50; for inhibition at 20 µM: read-out: Inhibitory activity against BChE, % inhibition at 20 μM, compound 20 μM, n.a. = not active
T2 construct: purchased Sigma-Aldrich; host or cells: equine serum
T2 sequence (P81908 whole entry): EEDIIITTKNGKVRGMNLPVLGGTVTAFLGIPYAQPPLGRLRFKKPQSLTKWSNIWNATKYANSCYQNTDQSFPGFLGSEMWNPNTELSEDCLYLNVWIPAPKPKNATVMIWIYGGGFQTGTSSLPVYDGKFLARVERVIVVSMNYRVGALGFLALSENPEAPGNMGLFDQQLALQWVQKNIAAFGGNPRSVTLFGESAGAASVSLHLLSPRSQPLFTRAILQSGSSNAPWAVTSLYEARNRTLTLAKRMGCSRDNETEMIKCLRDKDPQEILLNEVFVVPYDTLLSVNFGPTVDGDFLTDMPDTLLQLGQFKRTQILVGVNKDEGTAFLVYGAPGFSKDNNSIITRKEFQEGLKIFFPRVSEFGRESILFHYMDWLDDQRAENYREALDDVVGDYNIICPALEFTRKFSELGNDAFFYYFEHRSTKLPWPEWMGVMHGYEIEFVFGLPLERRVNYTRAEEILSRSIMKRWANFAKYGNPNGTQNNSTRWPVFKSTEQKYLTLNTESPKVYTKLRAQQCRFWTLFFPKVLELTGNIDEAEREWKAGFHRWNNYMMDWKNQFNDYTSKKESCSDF
Experimental: as §1, §2

EeAChE PAS = target: T3, EeAChE PAS (Electrophorus electricus, UniProt O42275); test: biochemical; type: binding; details: 0.25 h; compound 20 μM, EeAChE 7 μM, propidium iodide 8 μM; n.a. = not active; read-out: % Displacement of Propidium from the EeAChE PAS at 20 μM
T3 construct: purchased Sigma-Aldrich type VI-S; host or cells: electric eel
T3 sequence (O42275 24-633): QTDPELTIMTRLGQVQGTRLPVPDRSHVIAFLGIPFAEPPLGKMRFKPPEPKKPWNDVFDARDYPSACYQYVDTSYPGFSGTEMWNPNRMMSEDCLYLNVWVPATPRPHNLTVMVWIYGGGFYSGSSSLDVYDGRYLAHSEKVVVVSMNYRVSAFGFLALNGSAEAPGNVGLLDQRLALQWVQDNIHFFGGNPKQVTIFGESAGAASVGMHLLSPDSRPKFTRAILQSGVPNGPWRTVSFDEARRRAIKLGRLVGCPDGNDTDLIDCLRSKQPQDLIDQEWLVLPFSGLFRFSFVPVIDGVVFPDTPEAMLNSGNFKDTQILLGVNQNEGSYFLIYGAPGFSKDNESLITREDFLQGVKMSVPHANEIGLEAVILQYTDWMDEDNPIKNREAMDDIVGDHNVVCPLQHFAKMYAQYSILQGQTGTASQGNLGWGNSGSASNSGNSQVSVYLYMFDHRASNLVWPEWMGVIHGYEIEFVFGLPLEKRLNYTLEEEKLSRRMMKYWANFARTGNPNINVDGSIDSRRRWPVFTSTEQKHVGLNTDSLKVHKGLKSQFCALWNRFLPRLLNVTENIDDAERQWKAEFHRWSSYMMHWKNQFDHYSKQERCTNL
Experimental: Electrophorus electricus (EeAChE) (electric eel, type VI-S, lyophilized powder, Sigma-Aldrich, St. Louis, MO, USA) was used owing to its high degree of purification, high activity, and lower cost than human AChE (hAChE). […] To determine the degree of displacement (% displacement) of propidium from the PAS of AChE, EeAChE (final concentration, 7 μM) was incubated with the test compound at a concentration of 20 μM in 1 mM Tris-HCl buffer pH 8.0, 25 °C, for 15 min. Then, propidium iodide solution (final concentration, 8 μM) was added, the samples were incubated for 15 min, and the fluorescence spectrum (530 nm (excitation) and 600 nm (emission)) was taken. […] The blank contained propidium iodide of the same concentration in 1 mM Tris-HCl buffer, pH 8.0 at 25 °C. The measurements were carried out in triplicate on a FLUOStar Optima microplate reader (LabTech, Ortenberg, Germany), and the results were calculated by the following formula:% Displacement = 100 − (IFAChE + Propidium + inhibitor / IFAChE + Propidium) × 100 (1) where IFAChE + Propidium is the fluorescence intensity of the propidium associated with AChE in the absence of the test compound (taken as 100%), and IFAChE + Propidium + inhibitor is the fluorescence intensity of the propidium associated with AChE in the presence of the test compound.

[1] = ABTS radical cation scavenging activity assay; parameters: key to ABTS•+-scavenging activity, TEAC: ratio of slopes, tested compound vs Trolox (Trolox = 1); details: n=3, 1 h, 30 °C; for ABTS•+-scavenging activity, TEAC: Trolox equivalent antioxidant capacity, mean ± SEM; for IC50: concentration for 50% reduction of ABTS radical cation
Experimental: Radical scavenging activity of the compounds was evaluated by the ABTS radical cation (ABTS^•+) scavenging assay showing the ability of the compounds to decolorize the ABTS^•+ solution [86] with some modifications. Trolox was used as the antioxidant standard; ascorbic acid was used as the comparison compound. All tested compounds and standards were dissolved in DMSO.
The solution of ABTS^•+ was produced by mixing 7 mM ABTS aqueous solution with 2.45 mM potassium persulfate aqueous solution in equal quantities and allowing them to react for 12–16 h at room temperature in the dark. Radical scavenging capacity of the compounds was analyzed by mixing 10 µL of compound with 240 µL of ABTS^•+ working solution in ethanol (100 µM final concentration), and after 1 h of incubation at 30 °C the decrease in absorbance was measured spectrophotometrically at 734 nm using a Bio-Rad xMark microplate UV/VIS spectrophotometer (Bio-Rad, Hercules, CA, USA). The compounds were tested in the concentration range 5 × 10^−7–1 × 10^−4 M. Ethanol blanks were run in each assay. Values were obtained from five replicates of each sample and three independent experiments.
Antioxidant activity was reported as Trolox equivalent antioxidant capacity (TEAC values), consisting of the ratio between the slopes obtained from the linear correlation for concentrations of the tested compounds and Trolox with absorbance of ABTS radical. […] The calculations were carried out using Origin 6.1 for Windows (OriginLab, Northampton, MA, USA). Results are presented as mean ± SEM calculated using GraphPad Prism version 6.05 for Windows, GraphPad Software (San Diego, CA, USA).

[2] = Ferric reducing antioxidant power (FRAP) assay; details: Trolox equivalents; n=3, 1 h, 37 °C; mean ± SEM
Experimental: The FRAP (Ferric Reducing Antioxidant Power) assay measures the ability of antioxidants to reduce the ferric 2,4,6-tripyridyl-s-triazine complex [Fe(TPTZ)2]^3+ to the intensely blue-colored ferrous complex [Fe(TPTZ)2]^2+ with an absorption maximum at λ = 593 nm. The reducing ability of a compound is an indicator of its potential antioxidant activity.
The ferric reducing ability of the compounds was determined by a previously described method as a microplate-adapted version described in [42]. 2,4,6-tris(pyridin-2-yl)-1,3,5-triazine (TPTZ), FeCl3·6H2O, Trolox, ascorbic acid and DMSO were obtained from Sigma-Aldrich Chemical Co (St. Louis, MO, USA). The FRAP reagent was prepared by mixing acetate buffer (0.3 M, pH 3.6), TPTZ (10 mM in 40 mM HCl) and FeCl3·6H2O (20 mM in distilled water) in a ratio of 10:1:1 immediately before use. Compounds were dissolved in DMSO and tested in the concentration range of 1×10^−6–1×10^−4 M. The solvent content in the reaction mixture was 4% (v/v). The test compounds (10 µL) were added to the FRAP reagent solution (240 µL) and mixed thoroughly. The reaction was carried out at 37 °C in the dark, the incubation time was 1 h. The absorbance at 600 nm was monitored spectrophotometrically by a FLUOStar OPTIMA microplate reader (BMG Labtech, Germany) at 37 °C. Trolox was used as a standard antioxidant, ascorbic acid as a reference compound. Values were obtained from four replicates of each sample and three independent experiments.
The ferric reducing ability of compounds was expressed as TE units (antioxidant activity in Trolox equivalent) with the values calculated as the ratio of the concentrations of Trolox and the test compound resulting in the same effect.

porcine liver CES = test: CES inhibition, 4-nitrophenyl acetate hydrolysis; details: compound 20 μM; mean ± SEM, n = 3; n.a. = not active
Experimental: Final enzyme and substrate (4-nitrophenyl acetate) concentrations were 0.02 unit/mL and 1 mM, respectively. Assays were carried out with a blank containing all constituents except porcine CES to assess non-enzymatic hydrolysis. Measurements were performed with a FLUOStar Optima microplate reader (BMG Labtech, Ortenberg, Germany). Compounds were dissolved in DMSO; the incubation mixture contained 2% (v/v) solvent. The primary evaluation of the inhibitory activity of the compounds was performed by determining the degree of the enzyme inhibition at a compound concentration of 20 µM. For this, a sample of the corresponding enzyme was incubated with the test compound for 5 min; then the enzyme residual activity was determined. Each experiment was performed in triplicate. […] Substrate was then added and residual enzyme activity relative to an inhibitor-free control was measured using a FLUOStar Optima microplate reader.

[3] = Metal-chelating properties by UV-Vis spectrometry in acetonitrile; type: physicochemical; details: compound 40 µM, metal 40 µM, 25 °C, red shift of absorbance
Experimental: The complexing studies were made in acetonitrile at 25 °C using a UV–vis spectrophotometer Shimadzu UV-2600 (Shimadzu Corporation, Kyoto, Japan) with wavelength ranging from 190 to 600 nm. Solutions (200 µM in acetonitrile) of the following metals compounds were prepared in volumetric flasks: FeCl2·4H2O (99%, Acros Organics by Thermo Fisher Scientific (Kandel, Germany)), CuCl2 (98%, Alfa Aesar by Thermo Fisher Scientific (Kandel, Germany)), or Zn(NO3)2·6H2O (98%, Alfa Aesar by Thermo Fisher Scientific (Kandel, Germany). Solutions of the test compounds were also prepared in acetonitrile at 400 µM concentrations. To a mixture of 0.5 mL test compound solution (40 μM final concentration) and 3.5 mL acetonitrile, 1 mL of the metal solution (CuCl2, FeCl2·4H2O, or Zn(NO3)2·6H2O; 40 µM final concentration) was added. The solution was incubated at 25 °C for 30 min and then the absorption spectra were recorded at 25 °C in a 1 cm quartz cell. The control was prepared by mixing 0.5 mL tested compound solution and 4.5 mL acetonitrile.

[4] = compound 20 μM, mean ± SEM, n = 3, n.a. = not active

Row | Compound | IC50 (Human erythrocyte AChE; mean ± SEM, n = 3) | IC50 (equine serum BChE) | inhibition at 20 µM (EeAChE PAS) [%] | ABTS•+-scavenging activity, TEAC [1] | IC50 [1] [µM] | FRAP (Fe3+-reducing activity), TE [2] | Inhibitory activity against CES, % inhibition at 20 μM (porcine liver CES) [%] | inhibition at 20 µM (Human erythrocyte AChE) [%] | Metal-chelating ability for Cu2+, Fe2+ and Zn2+ [3] | inhibition at 20 µM (Human erythrocyte AChE; [4]) [%] | inhibition at 20 µM (equine serum BChE) [%]
1 | C/C(NCCCCCCNc1c2c(nc3ccccc13)CCCC2)=C(/N=N/c1ccc(C)cc1)C(=O)C(F)(F)F [8b] | 280 nM and 276 nM | 125 ± 6 nM | 14.4 ± 1.3 | 1.00 ± 0.04 | 17.9 ± 0.6 | 0.11 ± 0.03 | 19.9 ± 2.9 |  |  |  | 
2 | CCCCCCN/C(C)=C(\N=N\c1ccc(C)cc1)C(C)=O [2a, (3Z)-4-(Hexylamino)-3-[(E)-(4-methylphenyl)diazenyl]pent-3-en-2-one] |  | 18100 ± 800 nM |  | 0.94 ± 0.03 | 20.3 ± 1.6 | 0.57 ± 0.02 |  | 22.9 ± 1.2 |  |  | 
3 | C/C(NCCCCCCCCNc1c2c(nc3ccccc13)CCCC2)=C(/N=N/c1ccc(C)cc1)C(=O)c1ccccc1 [7c] | 250 nM and 249 nM | 74.5 ± 6 nM | 14.1 ± 1.1 | 0.92 ± 0.03 | 21.8 ± 1.6 | 0.58 ± 0.03 | 23.4 ± 2.2 |  |  |  | 
4 | CC(=O)C(/N=N/c1ccc(C)cc1)=C(\C)NCCCCNc1c2c(nc3ccccc13)CCCC2 [6a] | 1390 ± 40 nM | 139 ± 17 nM | 15.6 ± 1.2 | 1.00 ± 0.03 | 19.5 ± 1.1 | 0.37 ± 0.06 | 23.3 ± 0.4 |  | metal-chelating ability |  | 
5 | Cc1c(C)c2c(c(C)c1O)CCC(C)(C(=O)O)O2 (stereo not shown) [Trolox, 6-hydroxy-2,5,7,8-tetramethylchroman-2-carboxylic acid, reference compound] |  |  |  | 1.0 | 19.7 ± 0.8 | 1.0 |  |  |  |  | 
6 | O=C1O[C@H]([C@@H](O)CO)C(O)=C1O [Ascorbic acid, ascorbic acid, reference compound] |  |  |  | 0.96 ± 0.02 | 22.6 ± 1.3 | 1.23 ± 0.11 |  |  |  |  | 
7 | CCCCCCN/C(C)=C(\N=Nc1ccc(C)cc1)C(=O)c1ccccc1 [2b, (3Z)-3-(Hexylamino)-2-[(4-methylphenyl)diazenyl]-1-phenylbut-2-en-1-one] |  |  |  | 0.98 ± 0.03 | 18.9 ± 1.2 | 0.52 ± 0.02 |  |  |  | 12.5 ± 0.6 | 25 ± 2
8 | CC(=O)C(/N=N/c1ccc(C)cc1)=C(\C)NCCCCCCCCNc1c2c(nc3ccccc13)CCCC2 [6c] | 270 nM and 272 nM | 54 nM and 54.3 nM | 17.8 ± 1.4 | 0.80 ± 0.03 | 27.5 ± 1.6 | 0.49 ± 0.05 | 30.1 ± 1.2 |  |  |  | 
9 | C/C(NCCCCCCCCNc1c2c(nc3ccccc13)CCCC2)=C(/N=N/c1ccc(C)cc1)C(=O)C(F)(F)F [8c] | 240 nM and 241 nM | 98.5 ± 1.3 nM | 16.2 ± 1.4 | 0.95 ± 0.03 | 19.4 ± 1.3 | 0.12 ± 0.01 | 12.2 ± 1.7 |  |  |  | 
10 | C/C(NCCCCCCNc1c2c(nc3ccccc13)CCCC2)=C(/N=N/c1ccc(C)cc1)C(=O)c1ccccc1 [7b] | 380 ± 3 nM | 47 ± 3.8 nM | 15.5 ± 1.3 | 0.91 ± 0.03 | 21.8 ± 1.6 | 0.51 ± 0.06 | 33.2 ± 1.7 |  |  |  | 
11 | CCCCCCN/C(C)=C(\N=N\c1ccc(C)cc1)C(=O)C(F)(F)F [2c, (3Z)-4-(Hexylamino)-3-[(E)-(4-methylphenyl)diazenyl]-1,1,1-trifluoropent-3-en-2-one] |  |  |  | 1.00 ± 0.04 | 19.9 ± 1.4 | not active |  |  |  | 14.7 ± 3.2 | 35.3 ± 2.7
